# Source: patent publication US20230000816A1, “SODIUM-GLUCOSE LINKED TRANSPORTER INHIBITORS FOR THE MANAGEMENT OF CHRONIC KIDNEY DISEASE, HYPERTENSION, AND HEART FAILURE IN COMPANION ANIMALS” (INCREVET, INC., priority 2019, published 2023)
# Key:
# [1] = system: feline SGLT2; experiment: Inhibition of feline SGLT2
# [2] = system: purpose-bred beagles; experiment: Serum glucose after single oral dose and glucose challenge 1 h post-dose in dogs; format: in vivo, dog; conditions: mean ± SD; for Serum Glucose Concentration, 15 min / Serum Glucose Concentration, 30 min / Serum Glucose Concentration, 60 min / Serum Glucose Concentration, 120 min: after glucose challenge; for Serum Glucose Concentration, −60 min: before dosing; for Serum Glucose Concentration, 0 min: before glucose challenge (1 h post-dose)
# Protocol: Groups of four purpose-bred beagles per cohort were administered ascending doses of bexagliflozin in the form of a proline co-crystal consisting of two moles of L-proline for every mole of bexagliflozin. The co-crystal was dissolved in 10% PEG400 and administered by oral gavage to dogs that had been fasted overnight. Control dogs were administered 10% PEG400. One hour after dosing, glucose solution (2 g kg^−1, 5 ml kg^−1) was administered by gavage. Serum glucose concentrations were quantitated by an automated clinical chemistry analyzer for samples collected before dosing, before glucose challenge, and 15, 30, 60, and 120 min after glucose challenge. Urine was collected from 0 to 4 h, 4 to 8 h and 8 to 24 h after dosing for electrolyte analyses (Na^+, K^+, Cl^− and Ca^2+) and glucose measurement. Whole blood samples of approximately 500 μL were collected from the cephalic vein 0, 0.25, 0.5, 1, 2, 4, 8, 12 and 24 h after dosing for pharmacokinetic analysis.
# [3] = target: T1, human SGLT2 (Homo sapiens, UniProt P31639); experiment: Inhibition of human SGLT2
# T1 sequence (P31639 1-672): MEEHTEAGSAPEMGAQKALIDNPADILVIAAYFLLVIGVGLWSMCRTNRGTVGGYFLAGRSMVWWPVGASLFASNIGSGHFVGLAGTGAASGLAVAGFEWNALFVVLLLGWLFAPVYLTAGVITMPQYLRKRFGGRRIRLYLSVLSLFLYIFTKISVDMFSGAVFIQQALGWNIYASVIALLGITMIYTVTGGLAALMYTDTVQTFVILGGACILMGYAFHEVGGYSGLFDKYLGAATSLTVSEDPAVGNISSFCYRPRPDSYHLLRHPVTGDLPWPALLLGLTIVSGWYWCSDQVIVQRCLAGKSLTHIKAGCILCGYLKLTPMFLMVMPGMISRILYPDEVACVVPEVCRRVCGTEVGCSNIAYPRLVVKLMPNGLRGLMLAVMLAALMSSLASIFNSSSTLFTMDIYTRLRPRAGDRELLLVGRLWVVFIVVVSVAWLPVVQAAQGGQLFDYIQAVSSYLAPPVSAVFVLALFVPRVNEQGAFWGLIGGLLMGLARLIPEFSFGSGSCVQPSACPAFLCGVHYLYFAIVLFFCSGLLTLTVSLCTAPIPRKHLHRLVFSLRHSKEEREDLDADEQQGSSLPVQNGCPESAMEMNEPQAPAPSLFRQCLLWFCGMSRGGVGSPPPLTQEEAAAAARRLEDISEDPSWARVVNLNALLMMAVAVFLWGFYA
# [4] = system: cats with diabetes; experiment: Owner and veterinarian assessments of vitality and weight in diabetic cats; format: in vivo, cat
# Description: Assessments by both owners and veterinarians of correlative measures of cat vitality were also collected over the course of various studies. Some of the relevant measures for this analysis are the subjective impressions of cat musculature, solicited from both owners and veterinarians, and owner views of cat overall activity as well as leaping ability. The rating instrument was a 4-point scale with 0=excellent, 1=good, 2=fair and 3=poor.
# [5] = system: Sprague-Dawley rats; experiment: PPAR-γ agonist (pioglitazone)-mediated fluid retention / plasma expansion model, 7 days, drugs in drinking water; format: in vivo, rat
# Description: It has been recognized in human clinical practice that an undesirable side effect of PPAR-γ agonists of the thiazolidinedione class is fluid retention and edema, which limits their use in patients with congestive heart failure. The mechanism of action of the thiazolidinediones is believed to be through stimulation of expression of the epithelial sodium channel (ENaC) in the kidney, resulting in an increased uptake of sodium ions from the distal tubule. Sodium retention and the associated expansion of extracellular fluid volume are characteristic features of congestive heart failure in multiple species. […] The sodium channel blocker amiloride was delivered in drinking water to a third group of rats as a comparator. Plasma expansion was measured by hematocrit. […] Food weight was recorded to measure consumption over the course of the experiment. […] Full bottles were pre-weighed and the weights recorded to allow consumption to be measured over the course of the experiment. On days 1 and 7, rats were warmed using a heating pad and lightly anesthetized using isoflurane. Using a sterile scalpel blade, a small tail nick was made on the distal one third of the tail. Blood was collected in a heparinized microcapillary tube sealed with putty at one end and stored on ice until centrifugation (5000 rpm, 5 min). Plasma volume was determined using a microhematocrit capillary tube reader card. On day 7, rats, food and water bottles were again weighed and recorded and hematocrits were determined using blood collected by a tail nick.
# [6] = system: cats; experiment: Urinary glucose excretion in cats given bexagliflozin tablets; format: in vivo, cat
# [7] = Solubility; format: physicochemical
# [8] = rats, day 1 to day 7, mean ± SEM
# [9] = rats, pioglitazone diet, mean ± SEM
# [10] = rats, relative to day 1, mean ± SEM
smiles,measurement,setting,value
"OC[C@H]1O[C@@H](c2ccc(Cl)c(Cc3ccc(OCCOC4CC4)cc3)c2)[C@H](O)[C@@H](O)[C@@H]1O [Bexagliflozin, (2S,3R,4R,5 S,6R)-2-(4-chloro-3-(4-(2-cyclopropoxyethoxy)benzyl)phenyl)-6-(hydroxymethyl)tetrahydro-2H-pyran-3,4,5-triol]",inhibition of feline SGLT2 (in words),[1],potent but less selective inhibitor
same,"Serum Glucose Concentration, 15 min",[2]; 0.02 mg kg^−1 oral,122.13 ± 17.54 mg/dL
same,"Serum Glucose Concentration, 30 min",[2]; 0.02 mg kg^−1 oral,97.43 ± 6.87 mg/dL
same,"Serum Glucose Concentration, 60 min",[2]; 0.02 mg kg^−1 oral,93.29 ± 19.87 mg/dL
same,"Serum Glucose Concentration, 120 min",[2]; 0.02 mg kg^−1 oral,78.03 ± 10.98 mg/dL
same,"Serum Glucose Concentration, −60 min","[2]; 0.02 mg kg^−1 oral, time relative to glucose challenge",100.89 ± 3.49 mg/dL
same,"Serum Glucose Concentration, 0 min",[2]; 0.02 mg kg^−1 oral,95.94 ± 8.37 mg/dL
same,"Serum Glucose Concentration, 15 min",[2]; 0.067 mg kg^−1 oral,107.91 ± 12.08 mg/dL
same,"Serum Glucose Concentration, 30 min",[2]; 0.067 mg kg^−1 oral,104.31 ± 26.84 mg/dL
same,"Serum Glucose Concentration, 60 min",[2]; 0.067 mg kg^−1 oral,104.27 ± 17.85 mg/dL
same,"Serum Glucose Concentration, 120 min",[2]; 0.067 mg kg^−1 oral,79.65 ± 11.69 mg/dL
same,"Serum Glucose Concentration, −60 min",[2]; 0.067 mg kg^−1 oral,98.64 ± 7.63 mg/dL
same,"Serum Glucose Concentration, 0 min",[2]; 0.067 mg kg^−1 oral,91.58 ± 6.49 mg/dL
same,"Serum Glucose Concentration, 15 min",[2]; 0.20 mg kg^−1 oral,96.71 ± 7.21 mg/dL
same,"Serum Glucose Concentration, 30 min",[2]; 0.20 mg kg^−1 oral,105.48 ± 18.67 mg/dL
same,"Serum Glucose Concentration, 60 min",[2]; 0.20 mg kg^−1 oral,101.75 ± 14.83 mg/dL
same,"Serum Glucose Concentration, 120 min",[2]; 0.20 mg kg^−1 oral,76.10 ± 7.91 mg/dL
same,"Serum Glucose Concentration, −60 min",[2]; 0.20 mg kg^−1 oral,97.02 ± 7.61 mg/dL
same,"Serum Glucose Concentration, 0 min",[2]; 0.20 mg kg^−1 oral,84.65 ± 7.98 mg/dL
same,"Serum Glucose Concentration, 15 min",[2]; 0.67 mg kg^−1 oral,109.94 ± 17.55 mg/dL
same,"Serum Glucose Concentration, 30 min",[2]; 0.67 mg kg^−1 oral,109.04 ± 26.58 mg/dL
same,"Serum Glucose Concentration, 60 min",[2]; 0.67 mg kg^−1 oral,106.79 ± 11.98 mg/dL
same,"Serum Glucose Concentration, 120 min",[2]; 0.67 mg kg^−1 oral,76.95 ± 11.53 mg/dL
same,"Serum Glucose Concentration, −60 min",[2]; 0.67 mg kg^−1 oral,97.70 ± 5.27 mg/dL
same,"Serum Glucose Concentration, 0 min",[2]; 0.67 mg kg^−1 oral,87.08 ± 6.03 mg/dL
same,"Serum Glucose Concentration, 15 min",[2]; 2.0 mg kg^−1 oral,104.49 ± 9.60 mg/dL
same,"Serum Glucose Concentration, 30 min",[2]; 2.0 mg kg^−1 oral,112.86 ± 9.82 mg/dL
same,"Serum Glucose Concentration, 60 min",[2]; 2.0 mg kg^−1 oral,108.81 ± 6.77 mg/dL
same,"Serum Glucose Concentration, 120 min",[2]; 2.0 mg kg^−1 oral,71.06 ± 5.49 mg/dL
same,"Serum Glucose Concentration, −60 min",[2]; 2.0 mg kg^−1 oral,92.21 ± 7.11 mg/dL
same,"Serum Glucose Concentration, 0 min",[2]; 2.0 mg kg^−1 oral,85.10 ± 4.74 mg/dL
same,inhibition of human SGLT2 (in words),[3],highly effective and specific inhibitor
same,owner assessment of activity,[4]; 4-point scale,more active
same,owner assessment of leaping ability,[4]; 4-point scale,better leaping ability
same,veterinarian and owner assessments of musculature,"[4]; 4-point scale, statistically significant",musculature of study cats had improved
same,mean cat weight,"[4]; by visit, highly significant",mean cat weight increased
same,"Plasma volume, Day 7","[5]; rats after 7 days pioglitazone diet, group mean ± SEM",54.7 ± 0.6 % of blood volume
same,"Plasma volume, Day 1","[5]; rats on 0.03% pioglitazone diet, by hematocrit, group mean ± SEM",52.9 ± 0.5 % of blood volume
same,Effect on pioglitazone-mediated plasma expansion (conclusion),"[5]; rats, 7 days",substantially attenuates pioglitazone-mediated plasma expansion
same,"Body Weight (%), Δ (percent mass gain)",[5]; [8],4.8 ± 1.3 %
same,"Body Weight (g), Δ",[5]; [8],17.5 ± 4.7 g
same,"Body Weight (%), Δ (percent mass gain)","[5]; rats, day 1 to day 7, mean ± SEM, listed as bexagliflozin",4.8%
same,"Plasma volume, Δ (day 1 to day 7)","[5]; rats, pioglitazone diet, group mean ± SEM",1.8 ± 0.8 % of blood volume
same,"Body Weight (g), Day 1",[5]; [9],371.7 ± 5.0 ^ g
same,"Body Weight (g), Day 7",[5]; [9],389.2 ± 5.7 ^†† g
same,"Body Weight (%), Day 1",[5]; [10],100 ± 0 ^ %
same,"Body Weight (%), Day 7",[5]; [10],104.8 ± 1.3 ^†† %
same,% of the maximum pharmacodynamic effect,"[6]; cats, dose 200 μg kg^−1, based on results in purpose-bred cats",28%
same,% of the maximum pharmacodynamic effect,"[6]; cats, dose 400 μg kg^−1",44%
same,% of the maximum pharmacodynamic effect,"[6]; cats, dose 800 μg kg^−1",61%
same,% of the maximum pharmacodynamic effect,"[6]; cats, dose 1600 μg kg^−1",76%
same,% of the maximum pharmacodynamic effect,"[6]; cats, dose 3200 μg kg^−1",86%
same,% of the maximum pharmacodynamic effect,"[6]; cats, dose 6400 μg kg^−1",93%
same,% of the maximum pharmacodynamic effect,"[6]; cats, dose 12800 μg kg^−1",96%
same,% of the maximum pharmacodynamic effect,"[6]; cats, dose 25600 μg kg^−1",98%
same,ED50 for urinary glucose excretion,"[6]; cats, tablets of varying strengths, simple logistic model",approximately 0.5 mg kg^−1
same,Emax for urinary glucose excretion,[6]; healthy cats,2.21 g of glucose per kg of body mass
same,"solubility in ethanol, propylene glycol and PEGs relative to water",[7],more soluble
same,solubility,[7]; water at 25° C.,~500 µg/mL
